For two molecules, Average % control results are on record in patent publication US9034794B2, “Method for post-emergence crabgrass control” (FMC Corporation, priority 2007, dated 2015).

The experiment deals with Crabgrass (Digitaria sp.). Put plainly: Post-emergence control of crabgrass in greenhouse pots, application at the 1-2 leaf growth stage. The class given is in vivo. The procedure: The compositions of the present invention were tested for herbicidal efficacy in the following manner:
For post-emergence testing, three disposable 3 inch square pots for each rate of application of each herbicide solution were filled with a soil, comprised of peat moss, vermiculite, bark ash, pine bark, limestone and a wetting agent (Metro Mix® 360 artificial soil, Scotts Company, Marysville, Ohio), to which about 20 to 30 crabgrass seeds (Digitaria sp.) seeds were planted. The pots were placed in a greenhouse and watered daily, thus allowing the seeds to germinate and the foliage to develop for 11 days, until the crabgrass was at the 1-2 leaf growth stage.
Pots designated for treatment were placed on a conveyor belt and the conveyor belt fed under a spray nozzle mounted about ten inches above the postemergent foliage. The spray of herbicidal solution was commenced and once stabilized; the pots were passed under the spray at a speed to receive a coverage equivalent of 30 gallons per acre. The application rates are those shown in Table 1 below for the individual herbicidal solutions and the herbicide compositions of the present invention. The post-emergence pots were immediately placed in the green-house and not watered for 24 hours after treatment. Thereafter they were regularly watered at ground level. The control of crabgrass was evaluated in each experimental test from 1 to 22 days after treatment (DAT). The results, shown as an average of the replications, were compared with results observed in untreated control pots in the same tests. All test treatments contained 0.25% (by volume) of a non-ionic surfactant.
Percent control was determined by comparing the treated plants to the untreated control using the following rating system:
The results, shown as an average of the replications, were compared with results observed in untreated control plots in the same trials.

For `CCCN(CCC)c1c([N+](=O)[O-])cc(C(F)(F)F)c(N)c1[N+](=O)[O-]` [B, 2,4-dinitro-N^3,N^3-dipropyl-6-(trifluoromethyl)-1,3-benzenediamine], the Average % control is, setting by setting: (0.75 lb AI/Acre, 1 DAT) 0%; (0.75 lb AI/Acre, 3 DAT) 0%; (0.75 lb AI/Acre, 7 DAT) 0%; (0.75 lb AI/Acre, 14 DAT) 0%; (0.75 lb AI/Acre, 22 DAT) 0%.

Regarding `Cc1nn(-c2cc(NS(C)(=O)=O)c(Cl)cc2Cl)c(=O)n1C(F)F` [A, N-[2,4-dichloro-5-[4-(difluoromethyl)-4,5-dihydro-3-methyl-5-oxo-1H-1,2,4-triazol-1-yl]phenyl]methanesulfonamide], the Average % control runs as follows: (0.25 lb AI/Acre, 1 DAT) 20%; (0.25 lb AI/Acre, 3 DAT) 20%; (0.25 lb AI/Acre, 7 DAT) 5%; (0.25 lb AI/Acre, 14 DAT) 0%; (0.25 lb AI/Acre, 22 DAT) 0%; (0.375 lb AI/Acre, 1 DAT) 10%. Besides, the Average % control is listed as 25% (0.375 lb AI/Acre, 3 DAT); 10% (0.375 lb AI/Acre, 7 DAT); 0% (0.375 lb AI/Acre, 14 DAT); 0% (0.375 lb AI/Acre, 22 DAT).
